From US20150094294A1, “COMPOUNDS AND METHODS FOR TREATING MALARIA” (Cellceutix Corporation, priority 2012, published 2015) come the findings set out here.

What all share (type): cell-based
Data set [1] relates to P. falciparum 3D7 (chloroquine-sensitive). The experiment in a line: Anti-malarial activity, P. falciparum 3D7 culture, 72 hour, DNA content by flow cytometry. The following applies: Plasmodium falciparum, 3D7, 72 h, synchronized ring-stage parasites. As for the experimental part: Numerous compounds were screened in cultures of the malaria parasite P. falciparum 3D7 (chloroquine-sensitive) and DD2 (chloroquine-resistant). The compounds were also screened for toxixcity against 3T3 cells, HepG2 cells, and in a hemolysis assay. In brief, P. falciparum parasites were cultured in RPMI 1640 (Invitrogen) supplemented with Albumax II (Invitrogen). For synchronization, schizont stage parasites were magnet purified using a SuperMACS™ II Cell Separation Unit (Miltenyi Biotech). For IC50 determinations, synchronized ring-stage parasites were plated at 0.5% parasitemia and 8% hematocrit in 96-well plates at a total volume of 50 μL. Serial dilutions of 2× concentration of the respective compound, ranging from 2.5 μM to 20 nM, were added to the wells to bring the total volume up to 100 μL and 4% hematocrit. Compounds were assayed for a 72 hour period, after which the cultures were fixed with a solution of 4% paraformaldehyde and 0.08% glutaraldhyde in PBS. The cells were then permeabilized with 0.25% Triton X-100, and SYTOX Green Nucleic Acid Stain (Invitrogen) in PBS was added to a final concentration of 5 μM. DNA content, as an indicator of parasitemia, was analyzed on an Accuri C6 Flow Cytometer with C-Sampler. IC50 curves were generated using GraphPad Prism (GraphPad Software).

A short description of data set [2]: Cytotoxicity against 3T3 cells. The conditions noted are these: mouse, 3T3 cells; read-out: Cytotoxicity 3T3 EC50.
Another data set is described as follows: in vitro.
The nature of data set [3]: Cytotoxicity against HepG2 cells. The following applies: human, HepG2 cells; read-out: Cytotoxicity HepG2 EC50.

Values after ≈ are worked out from the molar mass of the structure shown.

What is called IC50 is the concentration at which inhibition is half-maximal. Broadly, the EC50 is the concentration giving half of the maximal effect. The compound `CC1(C)c2cc(-c3cccc(CCNC(=N)N)c3)ccc2-c2ccc(-c3cccc(CCNC(=N)N)c3)cc21` [Compound 284] gave an IC50 in data set [1] of more than 0.1 µM. Also, the EC50 amounted to 6 µM in data set [2], 2 mg/L (≈ 3.87 µM) in the data set “in vitro” and 28 µM in data set [3].

As to `N#Cc1cccc(C(=O)Nc2cc(NC(=O)c3cc(C(=O)Nc4cc(NC(=O)c5cccc(C#N)c5)cc(C(F)(F)F)c4)c(OCCN)cc3OCCN)cc(C(F)(F)F)c2)c1` [Compound 299], in data set [1], the IC50 was more than 0.1 µM. For the same compound, the EC50 came out at 920 µM in data set [2], 251 mg/L (≈ 292 µM) in the data set “in vitro” and 920 µM in data set [3].

Turning to `COc1cc(SCCN)c(C(F)(F)F)cc1NC(=O)c1cc(C(=O)Nc2cc(C(F)(F)F)c(SCCN)cc2OC)ncn1` [Compound 301], in data set [1], the IC50 stood at 0.029 µM. Moreover, the EC50 in data set [2] is 716 µM; in “in vitro”, less than 1 mg/L; in data set [3] it was 778 µM.

`COc1cc(SCCNC(=N)N)c(C(F)(F)F)cc1NC(=O)c1cc(C(=O)Nc2cc(C(F)(F)F)c(SCCNC(=N)N)cc2OC)ncn1` [Compound 302]: in data set [1], it took 0.333 µM to reach half-maximal inhibition (IC50). Moreover, the figures for the EC50 (in data set [2]; in the data set “in vitro”; in data set [3]) were 687 µM, 4 mg/L (≈ 5.34 µM) and more than 1000 µM, respectively.

Compound `CC(=O)Nc1cc(C(F)(F)F)cc(NC(=O)c2cc(C(=O)Nc3cc(C(F)(F)F)cc(NC(C)=O)c3SCCN)ncn2)c1SCCN` [Compound 303] registered an IC50 in data set [1] of 0.034 µM. Also, the EC50 in data set [2] was 887 µM; in the data set “in vitro”, 62 mg/L (≈ 86.3 µM); in data set [3], more than 1000 µM.

`NCCSc1c(NC(=O)c2ccccc2)cc(C(F)(F)F)cc1NC(=O)c1cc(C(=O)Nc2cc(C(F)(F)F)cc(NC(=O)c3ccccc3)c2SCCN)ncn1` [Compound 304] returned an IC50 in data set [1] of 0.069 µM. The EC50 amounted to 934 µM in data set [2], 3 mg/L (≈ 3.56 µM) in “in vitro” and 934 µM in data set [3].

The compound `NCCSc1c(NC(=O)c2cccc(F)c2)cc(C(F)(F)F)cc1NC(=O)c1cc(C(=O)Nc2cc(C(F)(F)F)cc(NC(=O)c3cccc(F)c3)c2SCCN)ncn1` [Compound 305] came in with an IC50 in data set [1] of 0.078 µM. The half-maximal effective concentration (EC50) in data set [2] worked out at 898 µM; in the data set “in vitro”, 223 mg/L (≈ 254 µM); in data set [3], 904 µM.

For the compound `NCCSc1c(NC(=O)c2cccc(Br)c2)cc(C(F)(F)F)cc1NC(=O)c1cc(C(=O)Nc2cc(C(F)(F)F)cc(NC(=O)c3cccc(Br)c3)c2SCCN)ncn1` [Compound 306], the IC50 in data set [1] is more than 0.1 µM. In addition, the EC50 in data set [2] came out at 814 µM; in the data set “in vitro”, 793 mg/L (≈ 792 µM); in data set [3], 814 µM.

Regarding `N#Cc1ccc(C(=O)Nc2cc(C(F)(F)F)cc(NC(=O)c3cc(C(=O)Nc4cc(C(F)(F)F)cc(NC(=O)c5ccc(C#N)cc5)c4SCCN)ncn3)c2SCCN)cc1` [Compound 307], the IC50 in data set [1] turned out to be 0.041 µM. Moreover, the EC50 in data set [2] is 846 µM; in the data set “in vitro” it was 757 mg/L (≈ 848 µM); in data set [3], 892 µM.

In the case of `N#Cc1ccc(C(=O)Nc2cc(C(F)(F)F)cc(NC(=O)c3cc(C(=O)Nc4cc(C(F)(F)F)cc(N)c4SCCN)ncn3)c2SCCN)cc1` [Compound 308], the IC50 in data set [1] is more than 0.1 µM. Moreover, the EC50 in data set [2] stood at 22 µM; in “in vitro”, 2 mg/L (≈ 2.62 µM); in data set [3] it was 34 µM.

`COc1ccc(C(=O)Nc2cc(C(F)(F)F)cc(NC(=O)c3cc(C(=O)Nc4cc(C(F)(F)F)cc(NC(=O)c5ccc(OC)cc5)c4SCCN)ncn3)c2SCCN)cc1` [Compound 310] came in with an IC50 in data set [1] of 0.084 µM. For the same compound, the EC50 in data set [2] is more than 1000 µM; in the data set “in vitro” it was 81 mg/L (≈ 89.7 µM); in data set [3] it was 884 µM.

In data set [1], `c1cc(N2CCNCC2)ccc1-c1ccc(N2CCNCC2)cc1` [Compound 317] registered an IC50 of more than 0.1 µM. Besides, the EC50 in data set [2] was 553 µM; in the data set “in vitro”, more than 1000 mg/L; in data set [3], 500 µM.

In data set [1], `NCCCc1ccc(-c2ccc(CCCN)cc2)cc1` [Compound 318] came in with a 50% inhibitory concentration (IC50) of more than 0.1 µM. The EC50 in data set [2] was 624 µM; in “in vitro”, more than 1000 mg/L; in data set [3] it was more than 1000 µM.
